The values that follow come from PubChem BioAssay (NCI).

Among the test systems are A498 renal; KM12 colon; LOX IMVI melanoma; MOLT-4 leukemia; NCI-H226 lung; SK-MEL-28 melanoma; SNB-75 CNS; SW-620 colon; T-47D breast; UACC-257 melanoma.
Assay in all cases: NCI-60 cell line screen, 48 h

“And” between values parts separate entries of the source, which are not always exact repeats. Equal entries are not always repeated.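 1) Cells in 96-well plates. 2) Compound, 48 h, 5 concentrations. 3) Linear interpolation between surrounding doses. 4) Unreached endpoint = highest concentration. GI50 marks 50% less growth. Definition used: TGI = concentration required for complete inhibition of growth.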

Consider `CCCC(=O)NC1=C(Cl)C(=O)c2ccccc2C1=O`, for which the TGI in the test on A498 renal worked out at 26.1 µM; with KM12 colon, 15.2 µM; in the test with LOX IMVI melanoma, 6.27 µM; with MOLT-4 leukemia, 7.2 µM; with NCI-H226 lung, 29.9 µM; with SK-MEL-28 melanoma, 17 µM. The TGI was determined as 20.2 µM in the test on SNB-75 CNS, 6.36 µM with SW-620 colon, 8.02 µM with T-47D breast and 14 µM in the test on UACC-257 melanoma.

As for `CCOC(=O)N1CCN(c2nc(Nc3cc(C)[nH]n3)c3ccccc3n2)CC1`, the GI50 with A498 renal is 0.423 µM; in the test with KM12 colon it was 0.479 µM; in the test with LOX IMVI melanoma it was 1.86 µM; with MOLT-4 leukemia, 15.5 µM; in the test with NCI-H226 lung, 1.58 µM; in the test on SK-MEL-28 melanoma, 12.2 µM. Further, the GI50 is 0.727 µM in the test on SNB-75 CNS, 2.1 µM in the test with SW-620 colon, 4.83 µM in the test on T-47D breast and 16.3 µM with UACC-257 melanoma. Further, the TGI was 2.78 µM in the test with A498 renal; 23.1 µM with KM12 colon; 10.1 µM in the test on LOX IMVI melanoma; 42.7 µM with MOLT-4 leukemia; 10.8 µM in the test with NCI-H226 lung; 91.3 µM in the test with SK-MEL-28 melanoma. In addition, the TGI in the test with SNB-75 CNS stood at 5.66 µM; with SW-620 colon, 45.2 µM; in the test with T-47D breast it was 70.7 µM; with UACC-257 melanoma it was 52.6 µM.

On to `COc1cc(/C=C2\C(=O)Nc3cc(C)c(O)cc32)cc(OC)c1OC`, for which the GI50 in the test on A498 renal is 8.5 µM; in the test on KM12 colon, 2.62 µM; in the test with LOX IMVI melanoma it was 3.66 µM; in the test on MOLT-4 leukemia, 3.32 µM; with NCI-H226 lung, 15.6 µM; in the test with SK-MEL-28 melanoma it was 7.59 µM. In addition, the GI50 in the test with SNB-75 CNS is 3.03 µM; with SW-620 colon, 4.08 µM; with T-47D breast, 3.93 µM; with UACC-257 melanoma, 13.5 µM. Also, the TGI was 25.4 µM in the test on A498 renal; 11.4 µM with KM12 colon; 14.4 µM in the test on LOX IMVI melanoma; 16.7 µM in the test with MOLT-4 leukemia; 46.5 µM in the test with NCI-H226 lung; 23 µM with SK-MEL-28 melanoma. The TGI in the test on SNB-75 CNS was over 30 µM; with SW-620 colon, 15.9 µM; with T-47D breast it was 37.9 µM; in the test on UACC-257 melanoma, 42.7 µM.

On to `C=C1C(=O)O[C@@H]2C[C@@H](C)[C@@H]3C=CC(=O)[C@@]3(C)[C@@H](OC(=O)CC(=O)O[C@H]3[C@@H]4C(=C)C(=O)O[C@@H]4C[C@@H](C)[C@@H]4C=CC(=O)[C@]43C)[C@H]12`, for which the TGI with A498 renal is 0.467 µM; with KM12 colon, 0.16 µM; in the test on LOX IMVI melanoma, 0.069 µM; in the test on MOLT-4 leukemia, under 0.0304 µM; in the test with NCI-H226 lung it was 0.3 µM; with SK-MEL-28 melanoma it was 0.11 µM. Also, the TGI turned out to be 1.54 µM with SNB-75 CNS, 0.0326 µM with SW-620 colon, 2.73 µM in the test on T-47D breast and 0.0812 µM in the test with UACC-257 melanoma.

Regarding `CC(=O)O[C@H]1CC[C@@]2(C)C(=CC[C@H]3[C@@H]4CC[C@H](c5cc(C(F)(F)F)n(C(C)=O)n5)[C@@]4(C)CC[C@@H]32)C1`, the TGI in the test with A498 renal was 22.5 µM; with KM12 colon, 20.9 µM; with LOX IMVI melanoma, 22.4 µM; in the test with MOLT-4 leukemia it was 8.39 µM; in the test with NCI-H226 lung, 20.8 µM; in the test with SK-MEL-28 melanoma, 28.9 µM. Further, the TGI in the test on SNB-75 CNS is 20.8 µM; in the test with SW-620 colon it was 49 µM; in the test with T-47D breast, 25 µM; in the test on UACC-257 melanoma it was 13.9 µM.

For the molecule `CCCNNC(=O)/C=C/c1ccc(CNCCc2c(C)[nH]c3ccccc23)cc1`, the GI50 was 0.00955 µM with A498 renal; 0.0485 µM with KM12 colon; 0.0368 µM in the test with LOX IMVI melanoma; 0.0152 µM in the test on MOLT-4 leukemia; 0.0291 µM with NCI-H226 lung; 0.0253 µM in the test with SK-MEL-28 melanoma. Also, the GI50 was 0.0753 µM with SNB-75 CNS, 0.0177 µM with SW-620 colon, 0.00852 µM in the test on T-47D breast and 0.0323 µM in the test with UACC-257 melanoma. Also, the TGI in the test with A498 renal was 0.0244 µM; in the test on KM12 colon it was 0.966 µM; in the test with LOX IMVI melanoma it was 0.0797 µM; in the test with MOLT-4 leukemia, 4.09 µM; with NCI-H226 lung, 0.131 µM; in the test with SK-MEL-28 melanoma, 0.0964 µM. Besides, the TGI in the test on SNB-75 CNS came out at 2.94 µM; with SW-620 colon it was 0.237 µM; in the test with T-47D breast it was 0.0624 µM; with UACC-257 melanoma it was 0.627 µM.

Take `FC(F)c1nc2ccccc2n1-c1nc(N2CCOCC2)nc(N2CCOCC2)n1`: the GI50 with A498 renal is 0.0303 µM and 0.0216 µM; in the test on KM12 colon it was 0.739 µM and 0.969 µM; with LOX IMVI melanoma, 0.376 µM and 0.491 µM; with MOLT-4 leukemia, 0.347 µM; with NCI-H226 lung, 0.249 µM and 0.452 µM; in the test with SK-MEL-28 melanoma, 0.174 µM and 0.244 µM. Moreover, the GI50 was 0.0257 µM and 0.0295 µM in the test with SNB-75 CNS; 0.573 µM and 1.16 µM in the test with SW-620 colon; 0.0502 µM and 0.11 µM in the test on T-47D breast; 0.264 µM and 0.25 µM with UACC-257 melanoma. For the same molecule, the TGI in the test with A498 renal is 0.169 µM and 0.138 µM; in the test with KM12 colon, over 100 µM; with MOLT-4 leukemia, over 100 µM; in the test with SK-MEL-28 melanoma, 1.87 µM and 3.79 µM; in the test on SNB-75 CNS, 0.403 µM and 0.481 µM; in the test on SW-620 colon, over 100 µM. Besides, the TGI was 0.388 µM and 0.565 µM in the test with T-47D breast; 3.09 µM and 3.64 µM in the test on UACC-257 melanoma.

On to `CCOC(=O)c1sc(-c2ccc(OS(=O)(=O)c3ccc(Br)s3)c(C=O)c2)nc1C`, for which the GI50 in the test on A498 renal was 6.15 µM; with KM12 colon, 3.36 µM; with LOX IMVI melanoma, 2.9 µM; in the test with MOLT-4 leukemia it was 2.73 µM; in the test with NCI-H226 lung, 3.82 µM; in the test with SK-MEL-28 melanoma it was 11.4 µM. Besides, the GI50 is 1.6 µM with SNB-75 CNS, 3.28 µM in the test on SW-620 colon, 2.77 µM in the test with T-47D breast and 18.6 µM in the test on UACC-257 melanoma. For the same molecule, the TGI in the test on A498 renal came to 40.1 µM; in the test with KM12 colon, 11.6 µM; in the test with LOX IMVI melanoma it was 8.52 µM; in the test with MOLT-4 leukemia, 8.3 µM; in the test on NCI-H226 lung, 23.1 µM; in the test on SK-MEL-28 melanoma, 33.4 µM. Further, the TGI in the test with SNB-75 CNS was 6.7 µM; with SW-620 colon, 12.8 µM; in the test on T-47D breast, 12.1 µM; with UACC-257 melanoma, 64.7 µM.

As to `O=C(CC(c1ccccc1)c1c(O)c2ccccc2oc1=O)c1ccccc1` (stereo not drawn), the TGI in the test with A498 renal is 98.6 µM; in the test on KM12 colon, over 100 µM; in the test on LOX IMVI melanoma, over 100 µM; in the test with MOLT-4 leukemia, over 100 µM; in the test with NCI-H226 lung it was over 100 µM; in the test on SK-MEL-28 melanoma, over 100 µM. Also, the TGI in the test on SNB-75 CNS, in the test on SW-620 colon, in the test with T-47D breast and in the test on UACC-257 melanoma was over 100 µM throughout.
